The target in test [1] is T1, human recombinant Monoacylglycerol Lipase (Homo sapiens, UniProt Q99685).
T1 sequence (Q99685 1-303): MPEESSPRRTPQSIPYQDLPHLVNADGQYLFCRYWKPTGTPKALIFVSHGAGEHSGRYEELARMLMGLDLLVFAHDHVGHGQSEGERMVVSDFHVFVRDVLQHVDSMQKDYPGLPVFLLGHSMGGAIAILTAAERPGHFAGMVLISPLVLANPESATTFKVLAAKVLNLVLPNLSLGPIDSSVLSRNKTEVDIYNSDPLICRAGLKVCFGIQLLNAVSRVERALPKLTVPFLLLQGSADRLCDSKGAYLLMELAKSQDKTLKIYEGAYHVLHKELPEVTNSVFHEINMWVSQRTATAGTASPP
Description: MAGL enzymatic assay (IC50; 7-HCA substrate added at T=0 min or T=30 min). Format: biochemical. Conditions: geometric mean of 2-5 determinations unless otherwise indicated.

For test [2], the target named is T1, human recombinant Monoacylglycerol Lipase. The test can be described thus: MAGL inactivation (kinact/KI from enzyme progress curves, T=0 min protocol). The settings on record: from plot of Kobs vs. compound concentration, geometric mean of 2-5 determinations (b: ≥6).
Where [3] appears, read: MAGL (T = 30 min) IC50, substrate 7-HCA added after 30 minute incubation (T=30 min).
Where [4] appears, read: substrate 7-HCA added immediately (T=0 min), read-out: MAGL (T = 0 min) IC50.

Like-named read-outs stand apart in the source and are kept apart here.

In the case of `O=C(O[C@H](CO)C(F)(F)F)N1CCC2(CC1)CC(Oc1cccc(F)c1)C2` [Example 51, (2R)-1,1,1-trifluoro-3-hydroxypropan-2-yl 2-(3-fluorophenoxy)-7-azaspiro[3.5]nonane-7-carboxylate], the IC50 in test [1] (setting [3]) came to 0.3 nM; in test [1] (setting [4]), 4 nM. Moreover, the “MAGL kinact/KI” value in test [2] is on record as 128000 1/s per M.

Turning to `N#Cc1ccc(F)c(C2COC3(CCN(C(=O)O[C@H](CO)C(F)(F)F)CC3)C2)c1` (single isomer, unassigned) [Example 30], the IC50 in test [1] (setting [3]) was 4 nM; in test [1] (setting [4]) it was 54 nM. Also, the “MAGL kinact/KI” value in test [2] is on record as 14400 1/s per M.

For the compound `O=C(O[C@H](CO)C(F)(F)F)N1CCC2(CC1)CC(c1ccc(F)cn1)CO2` (single isomer, unassigned) [Example 16], the IC50 came to 9 nM in test [1] (setting [3]) and 92 nM in test [1] (setting [4]). Also, the “MAGL kinact/KI” value in test [2] is listed as 5010^b 1/s per M.

Consider `O=C(O[C@H](CO)C(F)(F)F)N1CCC2(CC1)CC(c1ccccc1F)CO2` (single isomer, unassigned) [Example 26], for which the IC50 in test [1] (setting [3]) came out at 1 nM; in test [1] (setting [4]), 8 nM. Also, the “MAGL kinact/KI” value in test [2] is 87700 1/s per M.

Turning to `Cc1nn(C2CC3(CCN(C(=O)O[C@H](CO)C(F)(F)F)CC3)C2)c(C)c1C` [Example 65, (2R)-1,1,1-trifluoro-3-hydroxypropan-2-yl 2-(3,4,5-trimethyl-1H-pyrazol-1-yl)-7-azaspiro[3.5]nonane-7-carboxylate], the IC50 in test [1] (setting [3]) is 4 nM; in test [1] (setting [4]), 44 nM. Further, in test [2], the “MAGL kinact/KI” value is 10600 1/s per M.

The values are drawn from patent US10626125B2, “1,1,1-trifluoro-3-hydroxypropan-2-yl carbamate derivatives as MAGL inhibitors” (PFIZER INC., priority 2017, dated 2020).
